Reference: publication PMC9687439 (Biology, 2022)
“Also recorded” adds a separate entry of the source. Like-named read-outs stand apart in the source and are kept apart here. Ends that are not written are not given here.

Experiments:
Xylella fastidiosa cells [1] = assay type: cell-based
Xylella fastidiosa cells [2] = assay type: cell-based; remark: listed apart in the source
[3] = system: Xanthomonas albilineans (Xa), strain CFBP2523; assay type: cell-based; design: key: +++: Clear plaque formation; ++: turbid plaque formation; +: highly turbid plaque formation; -: no plaque formation
[4] = system: Xylella fastidiosa subsp. pauca, strain De Donno; assay type: cell-based
[5] = system: Xylella fastidiosa subsp. pauca, strain De Donno; assay type: cell-based; remark: listed apart in the source
[6] = system: Xylella fastidiosa biofilm; assay type: cell-based; conditions: 50 μM, 20 days, 28 °C
E. coli = conditions: cited from earlier work
S. aureus = conditions: cited from earlier work
Xylella fastidiosa cells [7] = assay type: cell-based; remark: listed apart in the source
X. fastidiosa = conditions: cited from earlier work
[8] = system: Xylella fastidiosa subsp. pauca isolate De Donno in Nicotiana tabacum (var. Xanthi); assay type: in vivo
Xf = conditions: 1 mg/mL; cited from earlier work
Xf strain 9a5c = conditions: cited from earlier work
[9] = system: Nicotiana tabacum cv. Xanthi leaves; conditions: in vivo

FFGKVLKLIRKIF-NH2 [FF13, DASamP1, synthetic antimicrobial peptide, …-NH2]
morphological changes of Xf cells under TEM (Xylella fastidiosa cells [1]): cytoplasmic condensation, loss of interior appearance, and alteration of the outer membrane
reduction in Xf cell viability (v-qPCR) (Xylella fastidiosa cells [2]): twofold reduction in cell viability
growth inhibition of Xanthomonas albilineans (plaque formation) [3]: +++
antimicrobial activity on Xf growth in antibiogram [4]: particularly highly active
reductive activity against Xf cells (OD600, words) [5]: greatest activity
effect on Xf biofilm formation (comparison, words) [6]: greater performance than KL29
MIC (μM) E. coli (E. coli): >100 µM
MIC (μM) S. aureus (S. aureus): 3.1 µM
lytic activity by fluorescence microscopy (live green / dead red) (Xylella fastidiosa cells [7]): moderate lytic activity

RIVWVRIRRWFV-NH2 [RV12, RIJK2, synthetic antimicrobial peptide, …-NH2]
growth inhibition of Xanthomonas albilineans (plaque formation) [3]: +++ and +
MIC (μM) X. fastidiosa (X. fastidiosa): 12.5 µM

CC(=O)N[C@@H](CS)C(=O)O [NAC, N-acetyl-L-cysteine]
morphological changes of Xf cells under TEM (Xylella fastidiosa cells [1]; 50 μM, 1 h, room temperature, Xf 10^8 CFU/mL): pore and protrusion formation and condensed cytoplasmic outflow from the outer membrane
Xf disease symptoms in Xf-infected tobacco plants ([8]; 30 dpi, 100 μL of treatment at inoculation point): did not develop any symptoms
Xf disease symptoms in Xf-infected tobacco leaf ([8]; 45 dpi, positive control treatment): no symptoms
activity against Xf (Xf): biocidal
effect on biofilm biomass of Xf strain 9a5c (Xf strain 9a5c): reducing the biofilm biomass

VQFRIRVRIVIRK-NH2 [VK13, 1036, synthetic antimicrobial peptide, […]-NH2]
growth inhibition of Xanthomonas albilineans (plaque formation) [3]: +++ and +
MIC (μM) X. fastidiosa (X. fastidiosa): 12.5 µM

IKWKKLLRAAKRIL-NH2 [IL14, DASamP2, synthetic antimicrobial peptide, […]-NH2]
morphological changes of Xf cells under TEM (Xylella fastidiosa cells [1]): cytoplasmic condensation, loss of interior appearance, and alteration of the outer membrane
reduction in Xf cell viability (v-qPCR) (Xylella fastidiosa cells [2]): twofold reduction in cell viability
growth inhibition of Xanthomonas albilineans (plaque formation) [3]: +++
antimicrobial activity on Xf growth in antibiogram [4]: particularly highly active
reductive activity against Xf cells (OD600, words) [5]: greatest activity
effect on Xf biofilm formation (comparison, words) [6]: greater performance than KL29
MIC (μM) E. coli (E. coli): 3.1 µM
MIC (μM) S. aureus (S. aureus): 6.2 µM
lytic activity by fluorescence microscopy (live green / dead red) (Xylella fastidiosa cells [7]): moderate lytic activity

GFKDLLKGAAKALVKTVLF-NH2 [GF19, Ascaphin-8]
diameter of halo-shaped tissue dissolving in tobacco leaves [9]: 7 mm
hypersensitive reaction in tobacco leaves [9]: light hypersensitive reaction
morphological changes of Xf cells under TEM (Xylella fastidiosa cells [1]): damaged and fragmented cell walls, with complete destruction of the outer and inner bacterial membranes
reduction in viability of Xf compared to untreated cells (v-qPCR) (Xylella fastidiosa cells [2]): more-than-fourfold reduction in viability
growth inhibition of Xanthomonas albilineans (plaque formation) [3]: +++
antimicrobial activity on Xf growth in antibiogram [4]: particularly highly active; also recorded: distinct inhibitory activity
reductive activity against Xf cells (OD600, words) [5]: greatest activity
effect on Xf biofilm formation (comparison, words) [6]: interfered with biofilm formation in the same manner as NAC; also recorded: greater performance than KL29
MIC (μM) E. coli (E. coli): 12.5 µM
MIC (μM) S. aureus (S. aureus): 3.1 µM
lytic activity by fluorescence microscopy (live green / dead red) (Xylella fastidiosa cells [7]): highest lytic activities

GLLGLLGSVVSHVVPAIVGHF-NH2 [GF21, Maculatin 1.3, antimicrobial peptide, source frog]
growth inhibition of Xanthomonas albilineans (plaque formation) [3]: +++ and -
MIC (μM) E. coli (E. coli): >100 µM
MIC (μM) S. aureus (S. aureus): 6.2 µM

Lycotoxin I [IL25]
growth inhibition of Xanthomonas albilineans (plaque formation) [3]: +++ and -
MIC (μM) E. coli (E. coli): 25 µM
MIC (μM) S. aureus (S. aureus): 3.1 µM

FFHHIFRGIVHVGKTIHRLVTG [FG22, Piscidin 1, antimicrobial peptide, source fish]
growth inhibition of Xanthomonas albilineans (plaque formation) [3]: +++ and -
MIC (μM) E. coli (E. coli): 12.5 µM
MIC (μM) S. aureus (S. aureus): 3.1 µM
